Experimental data published in paper PMC8453936, “Development and in vitro Profiling of Dual FXR/LTA4H Modulators” (Chemmedchem, 2021).

Target: T1, full-length human FXR (Homo sapiens, UniProt Q96RI1)
T1 construct: coding for the full‐length human nuclear receptors FXR and RXRα; expressed in transfected cells; host or cells: HeLa
T1 sequence (Q96RI1 1-486): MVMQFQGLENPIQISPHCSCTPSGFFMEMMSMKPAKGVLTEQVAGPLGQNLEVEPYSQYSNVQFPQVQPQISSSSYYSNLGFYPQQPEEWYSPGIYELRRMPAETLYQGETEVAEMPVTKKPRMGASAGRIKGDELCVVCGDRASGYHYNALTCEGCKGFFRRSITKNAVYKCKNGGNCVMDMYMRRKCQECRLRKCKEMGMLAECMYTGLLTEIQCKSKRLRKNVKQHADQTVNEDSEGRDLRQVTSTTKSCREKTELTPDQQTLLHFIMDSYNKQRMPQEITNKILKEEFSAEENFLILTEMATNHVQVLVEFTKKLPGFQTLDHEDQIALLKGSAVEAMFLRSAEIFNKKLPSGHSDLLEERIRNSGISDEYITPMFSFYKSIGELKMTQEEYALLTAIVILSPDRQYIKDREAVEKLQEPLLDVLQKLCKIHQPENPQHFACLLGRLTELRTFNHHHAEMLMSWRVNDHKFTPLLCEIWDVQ
T1 sequence (P19793 1-462 partner): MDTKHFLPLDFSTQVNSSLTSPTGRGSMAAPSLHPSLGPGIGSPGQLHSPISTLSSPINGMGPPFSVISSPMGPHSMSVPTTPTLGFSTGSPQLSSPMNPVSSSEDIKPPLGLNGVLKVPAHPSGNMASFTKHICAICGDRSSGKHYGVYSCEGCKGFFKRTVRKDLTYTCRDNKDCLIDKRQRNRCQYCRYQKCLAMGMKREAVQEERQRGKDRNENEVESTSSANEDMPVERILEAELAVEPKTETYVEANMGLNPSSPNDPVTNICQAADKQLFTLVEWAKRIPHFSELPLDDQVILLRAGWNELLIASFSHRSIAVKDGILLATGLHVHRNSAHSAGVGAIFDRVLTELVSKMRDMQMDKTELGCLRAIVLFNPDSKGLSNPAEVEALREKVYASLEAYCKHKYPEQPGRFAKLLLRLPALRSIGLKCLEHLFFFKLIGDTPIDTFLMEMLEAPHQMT
Assay: Full-length FXR:RXR reporter gene assay (BSEP promoter, HeLa, transiently transfected)
Type: cell-based
Details: mean±S.E.M., n≥3
Procedure: Full‐length FXR:RXR reporter gene assay. HeLa cells were grown in DMEM high glucose supplemented with 10 % FCS, sodium pyruvate (1 mM), penicillin (100 U/mL) and streptomycin (100 μg/mL) at 37 °C and 5 % CO2 and seeded in 96‐well plates 24 h before transfection with a density of 8000 cells per well. 3.5 h before transfection, medium was changed to DMEM high glucose, supplemented with sodium pyruvate (1 mM), penicillin (100 U/mL), streptomycin (100 μg/mL) and 0.5 % charcoal‐stripped FCS. Cells were then transiently transfected with using the calcium phosphate transfection method with pGL3basic‐BSEP[26, 27] (containing a shortened construct of the promotor of the bile salt export protein (BSEP) cloned into the SacI/NheI cleavage site in front of the luciferase gene), pcDNA3‐hFXR[26] and pSG5‐hRXR[38] coding for the full‐length human nuclear receptors FXR and RXRα, and pRL‐SV40 (Promega) for normalization of transfection efficiency and cell growth. 16 h after transfection, medium was changed to DMEM high glucose, supplemented with sodium pyruvate (1 mM), penicillin (100 U/mL), streptomycin (100 μg/mL) and 0.5 % charcoal‐stripped FCS. 24 h after transfection, medium was changed to DMEM without phenol red, supplemented with sodium pyruvate (1 mM), penicillin (100 U/mL), streptomycin (100 μg/mL), L‐glutamine (2 mM) and 0.5 % charcoal‐stripped FCS, now additionally containing 0.1 % DMSO and the respective test compound or 0.1 % DMSO alone as untreated control. Each sample was tested in triplicate wells and each experiment was repeated independently at least three times. Following 24 h incubation with the test compounds, cells were assayed for luciferase activity using Dual‐Glo Luciferase Assay System (Promega) according to the manufacturer's protocol. Luminescence was measured with a Tecan Spark M luminometer (Tecan). Normalization of transfection efficiency and cell growth was done by division of firefly luciferase data by Renilla luciferase data multiplied by 1000 resulting in relative light units (RLU). Fold activation was obtained by dividing the mean RLU of the tested compound at a respective concentration by the mean RLU of untreated control. EC50 and standard error of the mean values were calculated with the mean fold activation values of at least three independent experiments with SigmaPlot 10.0 (Systat Software GmbH, Erkrath, Germany) using a four‐parameter logistic regression.

With `O=C(O)c1ccnc(NC(=O)c2ccc(OCCCc3ccccc3)cc2)c1` [compound 19, 2‐(4‐(3‐Phenylpropoxy)benzamido)isonicotinic acid] the “FXR efficacy (maximum FXR activation relative to 3 μM GW4064)” value (3 μM GW4064 = 100 % activation) was 21±1% and the EC50 (full-length FXR reporter gene assay, BSEP promoter, HeLa) was 0.46 ± 0.08 µM.
